pIC50: −log10 of the molar value. Bounds are passed on as bounds.

A short description of this test: Inhibition of Staphylococcus aureus Sortase Adelta59 by FRET assay.
`CN(C(=O)/C=C/c1ccco1)c1ccc(N2CCOCC2)c(C(=O)O)c1`: the pIC50 is < 3.22.

Take `O=C(/C=C\c1cccs1)Nc1ccc(N2CCOCC2)c(C(=O)O)c1`: the pIC50 was 3.81. `O=C(/C=C/c1ccco1)Nc1ccc(N2CCOCC2)c(C(=O)O)c1` showed a pIC50 of 3.74. This pIC50 and that of the compound before are within 0.2 log units of each other.

For `O=C(O)c1cc(NC/C=C/c2cccs2)ccc1N1CCOCC1`, the pIC50 was < 3.22. To `O=C(C#Cc1cccs1)Nc1ccc(N2CCOCC2)c(C(=O)O)c1` belongs 3.74. For `COC(=O)c1cc(NC/C=C/c2cccs2)ccc1N1CCOCC1` the value was 3.60; for `O=C(CCc1ccco1)Nc1ccc(N2CCOCC2)c(C(=O)O)c1`, < 3.22; for `COC(=O)c1cc(NC(=O)/C=C/c2ccco2)ccc1N1CCCCC1`, 3.88.

Compound `O=C(/C=C/c1cccs1)Nc1ccc(N2CCOCC2)c(C(=O)O)c1` showed a pIC50 of 4.12. `O=C(/C=C/c1cccs1)Nc1ccc(N2CCCCC2)c(C(=O)O)c1`: the pIC50 is 3.74. Against the preceding compound, the pIC50 is 0.38 log units lower.

As for `O=Cc1cc(NC(=O)/C=C/c2ccco2)ccc1N1CCOCC1`, the pIC50 was 3.97. In the case of `O=C(CCc1cccs1)Nc1ccc(N2CCOCC2)c(C(=O)O)c1`, the pIC50 was < 3.22. On to `COC(=O)c1cc(NC(=O)CCc2ccco2)ccc1N1CCOCC1`, for which the pIC50 was < 3.22. To `CN(C(=O)/C=C/c1cccs1)c1ccc(N2CCOCC2)c(C(=O)O)c1` belongs < 3.22; to `NC(=O)c1cc(NC(=O)/C=C/c2cccs2)ccc1N1CCOCC1`, 3.98. `COC(=O)c1cc(NC(=O)/C=C/c2cccs2)ccc1N1CCCCC1` had a pIC50 of 4.04. On to `COC(=O)c1cc(NC(=O)/C=C/c2cccs2)ccc1N1CCOCC1`, for which the pIC50 was 4.15. For `COC(=O)c1cc(NC(=O)CCc2cccs2)ccc1N1CCOCC1` the value was < 3.22; for `COC(=O)c1cc(NC(=O)C#Cc2cccs2)ccc1N1CCOCC1`, 3.78; for `O=Cc1cc(NC(=O)/C=C/c2cccs2)ccc1N1CCOCC1`, 4.11.

Compound `COC(=O)c1cc(NC(=O)/C=C/c2ccco2)ccc1N1CCOCC1` had a pIC50 of 4.24.

Regarding `O=C(/C=C/c1ccco1)Nc1ccc(N2CCCCC2)c(C(=O)O)c1`, the pIC50 is 3.33. To `O=C(/C=C/c1ccco1)Nc1ccc(N2CCOCC2)c(CO)c1` belongs 3.95; to `COC(=O)c1cc(NC(=O)/C=C\c2cccs2)ccc1N1CCOCC1`, 4.21; to `COC(=O)c1cc(N(C)C(=O)/C=C/c2ccco2)ccc1N1CCOCC1`, 3.29. `O=C(/C=C/c1cccs1)Nc1ccc(N2CCOCC2)c(CO)c1`: the pIC50 is 4.14.

For the compound `COC(=O)c1cc(N(C)C(=O)/C=C/c2cccs2)ccc1N1CCOCC1`, the pIC50 is 3.24.

The record behind these values is ChEMBL document CHEMBL1240412, “Synthesis and structure activity relationship studies of novel Staphylococcus aureus Sortase A inhibitors” (Eur J Med Chem, 2010).
